In US8828908B2, “Herbicidally active bicyclic 1,3-dione compounds” (Syngenta Limited, priority 2007, dated 2014):

Key:
Assay type in all cases: in vivo
[1] = system: Alopecurus myosuroides (ALOMY); experiment: Example A pre-emergence herbicidal glasshouse test; conditions: 312 h, Rate 250 g/ha, evaluated after 13 days, 100=total damage to plant, 0=no damage to plant
How it was run: (§1)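 Visual injury score (0 none to 100 total plant damage) recorded 13 days after spraying. Plants received an aqueous spray of compound in 50:50 acetone/water with 0.5% Tween 20, either one day after sowing or after eight days of cultivation, in pots kept under controlled glasshouse conditions.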

[2] = system: Amaranthus retroflexus (AMARE); experiment: Example A pre-emergence herbicidal glasshouse test; conditions: 312 h, Rate 250 g/ha, evaluated after 13 days, 100=total damage to plant, 0=no damage to plant
How it was run: as §1

Avena fatua (AVEFA) [3] = experiment: Example A pre-emergence herbicidal glasshouse test; conditions: 312 h, Rate 250 g/ha, evaluated after 13 days, 100=total damage to plant, 0=no damage to plant
How it was run: as §1

[4] = system: Echinochloa crus-galli (ECHCG); experiment: Example A pre-emergence herbicidal glasshouse test; conditions: 312 h, Rate 250 g/ha, evaluated after 13 days, 100=total damage to plant, 0=no damage to plant
How it was run: as §1

Setaria faberi (SETFA) [5] = experiment: Example A pre-emergence herbicidal glasshouse test; conditions: 312 h, Rate 250 g/ha, evaluated after 13 days, 100=total damage to plant, 0=no damage to plant
How it was run: as §1

[6] = system: Alopecurus myosuroides (ALOMY); experiment: Example A post-emergence herbicidal glasshouse test; conditions: 312 h, evaluated after 13 days, 100=total damage to plant, 0=no damage
How it was run: as §1

[7] = system: Amaranthus retroflexus (AMARE); experiment: as above; conditions: 312 h, evaluated after 13 days, 100=total damage to plant, 0=no damage
How it was run: as §1

Avena fatua (AVEFA) [8] = experiment: as above; conditions: 312 h, evaluated after 13 days, 100=total damage to plant, 0=no damage
How it was run: as §1

[9] = system: Echinochloa crus-galli (ECHCG); experiment: as above; conditions: 312 h, evaluated after 13 days, 100=total damage to plant, 0=no damage
How it was run: as §1

Setaria faberi (SETFA) [10] = experiment: as above; conditions: 312 h, evaluated after 13 days, 100=total damage to plant, 0=no damage
How it was run: as §1

[11] = system: Alopecurus myosuroides (ALOMY); experiment: Example B pre-emergence herbicidal greenhouse test; conditions: 480 h, evaluated after 20 days, 100=total damage to plant, 0=no damage
Method: (§2) Seeds of a variety of test species were sown in standard soil in pots. After cultivation for one day (pre-emergence) or after 10 days cultivation (post-emergence) under controlled conditions in a glasshouse, the plants were sprayed with an aqueous spray solution derived from the formulation of the technical active ingredient in 0.6 ml acetone and 45 ml formulation solution containing 10.6% Emulsogen EL (Registry number 61791-12-6), 42.2% N-methylpyrrolidone, 42.2% dipropylene glycol monomethyl ether (Registry number 34590-94-8) and 0.2% X-77 (Registry number 11097-66-8). The test plants were then grown in a greenhouse under optimum conditions until, 15 days later for post-emergence and 20 days for pre-emergence, the test was evaluated (100=total damage to plant; 0=no damage to plant).
(§3) Alopecurus myosuroides (ALOMY), Avena fatua (AVEFA), Lolium perenne (LOLPE), Setaria faberi (SETFA), Digitaria sanguinalis (DIGSA), Echinochloa crus-galli (ECHCG)

Avena fatua (AVEFA) [12] = experiment: Example B pre-emergence herbicidal greenhouse test; conditions: 480 h, evaluated after 20 days, 100=total damage to plant, 0=no damage
Method: as §2, §3

[13] = system: Digitaria sanguinalis (DIGSA); experiment: Example B pre-emergence herbicidal greenhouse test; conditions: 480 h, evaluated after 20 days, 100=total damage to plant, 0=no damage
Method: as §2, §3

[14] = system: Echinochloa crus-galli (ECHCG); experiment: Example B pre-emergence herbicidal greenhouse test; conditions: 480 h, evaluated after 20 days, 100=total damage to plant, 0=no damage
Method: as §2, §3

Lolium perenne (LOLPE) [15] = experiment: Example B pre-emergence herbicidal greenhouse test; conditions: 480 h, evaluated after 20 days, 100=total damage to plant, 0=no damage
Method: as §2, §3

Setaria faberi (SETFA) [16] = experiment: Example B pre-emergence herbicidal greenhouse test; conditions: 480 h, evaluated after 20 days, 100=total damage to plant, 0=no damage
Method: as §2, §3

[17] = system: Alopecurus myosuroides (ALOMY); experiment: Example B post-emergence herbicidal greenhouse test; conditions: 360 h, evaluated after 15 days, 100=total damage to plant, 0=no damage
Method: as §2, §3

Avena fatua (AVEFA) [18] = experiment: as above; conditions: 360 h, evaluated after 15 days, 100=total damage to plant, 0=no damage
Method: as §2, §3

[19] = system: Digitaria sanguinalis (DIGSA); experiment: as above; conditions: 360 h, evaluated after 15 days, 100=total damage to plant, 0=no damage
Method: as §2, §3

[20] = system: Echinochloa crus-galli (ECHCG); experiment: as above; conditions: 360 h, evaluated after 15 days, 100=total damage to plant, 0=no damage
Method: as §2, §3

Lolium perenne (LOLPE) [21] = experiment: as above; conditions: 360 h, evaluated after 15 days, 100=total damage to plant, 0=no damage
Method: as §2, §3

Setaria faberi (SETFA) [22] = experiment: as above; conditions: 360 h, evaluated after 15 days, 100=total damage to plant, 0=no damage
Method: as §2, §3

Structure (SMILES)	pest or weed control at 250 g/ha [11]	pest or weed control at 250 g/ha (Avena fatua (AVEFA) [12])	pest or weed control at 250 g/ha [13]	pest or weed control at 250 g/ha [14]	pest or weed control at 250 g/ha (Lolium perenne (LOLPE) [15])	pest or weed control at 250 g/ha (Setaria faberi (SETFA) [16])	pest or weed control at 125 g/ha [17]	pest or weed control at 125 g/ha (Avena fatua (AVEFA) [18])	pest or weed control at 125 g/ha [19]	pest or weed control at 125 g/ha [20]	pest or weed control at 125 g/ha (Lolium perenne (LOLPE) [21])	pest or weed control at 125 g/ha (Setaria faberi (SETFA) [22])	also measured
CCc1cc(-c2ccc(Cl)cc2)ccc1C1=C(O)[C@H]2CC[C@H](C2)C1=O [Compound T59, 3-(4′-chloro-3-ethylbiphen-4-yl)bicyclo[3.2.1]octane-2,4-dione]	80%	70%	90%	100%	80%	100%	90%	30%	100%	100%	80%	100%	pest or weed control at 250 g/ha [1]: 70%; pest or weed control at 250 g/ha [2]: 0%; pest or weed control at 250 g/ha (Avena fatua (AVEFA) [3]): 70%; pest or weed control at 250 g/ha [4]: 100%; pest or weed control at 250 g/ha (Setaria faberi (SETFA) [5]): 100%; pest or weed control at 250 g/ha [6]: 100%; pest or weed control at 250 g/ha [7]: 30%; pest or weed control at 250 g/ha (Avena fatua (AVEFA) [8]): 90%; pest or weed control at 250 g/ha [9]: 100%; pest or weed control at 250 g/ha (Setaria faberi (SETFA) [10]): 100%
Cc1ccc(-c2ccc(Cl)c(C(F)(F)F)c2)cc1C1=C(O)[C@H]2CC[C@H](C2)C1=O (single isomer, unassigned) [Compound T8]	50%	30%	70%	100%	50%	70%	10%	0%	30%	0%	0%	30%	
CCc1ccc(-c2ccc(C)cc2)cc1C1=C(O)[C@H]2CC[C@H](C2)C1=O [Compound T5]	0%	10%	10%	100%	0%	0%	0%	0%	50%	80%	0%	70%	
COc1cc(Cl)ccc1-c1ccc(C)c(C2=C(O)[C@H]3CC[C@H](C3)C2=O)c1 (single isomer, unassigned) [Compound T11]	10%	0%	0%	10%	10%	10%	20%	20%	0%	20%	0%	10%	
Cc1ccc(-c2cc(Cl)cc(Cl)c2)cc1C1=C(O)[C@H]2CC[C@H](C2)C1=O (single isomer, unassigned) [Compound T28]	0%	10%	0%	0%	20%	0%	20%	10%	0%	0%	0%	10%	
Cc1ccc(-c2ccc(Cl)c(Cl)c2)cc1C1=C(O)[C@H]2CC[C@H](C2)C1=O (single isomer, unassigned) [Compound T10]	50%	0%	30%	50%	20%	80%	10%	10%	0%	0%	20%	0%	
Cc1ccc(-c2ccc(Cl)cc2C)cc1C1=C(O)[C@H]2CC[C@H](C2)C1=O (single isomer, unassigned) [Compound T26]	0%	0%	0%	30%	20%	50%	20%	0%	10%	60%	10%	60%	
COc1ccc(Cl)cc1-c1ccc(C)c(C2=C(O)[C@H]3CC[C@H](C3)C2=O)c1 (single isomer, unassigned) [Compound T30]	0%	0%	0%	0%	0%	0%	10%	10%	0%	0%	10%	0%	
Cc1ccc(-c2ccc(Cl)cc2F)cc1C1=C(O)[C@H]2CC[C@H](C2)C1=O (single isomer, unassigned) [Compound T27]	60%	50%	80%	80%	70%	100%	30%	70%	70%	80%	30%	90%	
CCc1ccc(-c2ccccc2)cc1C1=C(O)[C@H]2CC[C@H](C2)C1=O (single isomer, unassigned) [Compound T2]	0%	20%	0%	100%	10%	0%	10%	0%	0%	60%	0%	30%	
Cc1cc(-c2ccccc2)cc(C)c1C1=C(OC(=O)C(C)(C)C)C2CCC(C2)C1=O (stereo not shown) [Compound P2, 3-(3,5-dimethylbiphen-4-yl)-4-oxo-bicyclo[3.2.1]oct-2-en-2-yl 2,2-dimethylpropionate]	30%	40%	70%	50%	30%	70%	30%	0%	40%	60%	10%	40%	
